The text below walks through data of patent US5470858A, “Derivatives of (hetero)aromatic ethers and thioethers having antihyperlipidemic activity, process for their preparation and pharmaceutical compositions containing them” (Pierrel SpA, priority 1991, dated 1995).

Where two headings read alike, the source gives them in different places.

Holding throughout (type): in vivo
Series [1] concerns hyperlipaemic SD male rats. Put plainly: Hypolipemizing activity, 5 days experimental model, modified Nath diet. As to conditions: rat, oral; for change in vivo at 100 mg/kg/day / change in vivo at 300 mg/kg/day: 120 h; for Hepatic index (percent variation vs hyperlipaemic controls): index = (Liver weight/body weight) × 100. The procedure:
(§1) The hypolipemizing activity of the compounds of the present invention has been evaluated in the rat using SD male animals (Charles River) of an initial weight of 150 g, housed in controlled environment at a temperature of 21°±1° C., relative humidity 60% and a 12 hours light/dark cycle.
Experimental models have been used in which the animals are rendered hiperlipaemic by "ad libitum" food administration with a modified Nath diet (Atherosclerosis 30, 1978, pag. 45-46) having the following composition: […]
hydrogenated coconut oil
In the first model the animals have been fed with this diet for 5 consecutive days, during which they received the pharmacological treatment once a day by oral route and were sacrificed 2 hours after the last administration.
At the time of the sacrifice the blood was removed, for the lipid determination, as well as the liver the weight of which was the index of a possible hepatomegaly.
By this experimental model the concentration of the serum lipids attained very high values which, in the control group, was four times the normal values for the total cholesterol and the triglycerides.
(§2) The determination of the triglycerides, of the total cholesterol and of the cholesterol associated to the HDL has been effected by means of a commercial enzymatic kit. The concentration of the cholesterol associated to VLDL+LDL has been determined by difference between total cholesterol and HDL.
The results obtained in the experimental model of the 5 days duration for some compounds representative of the invention are reported in the following table 1. The data are expressed as percent variation with respect to the hyperlipaemic controls to which carboxymethylcellulose as 0.5% in water at the dose of 10 ml/kg/day by oral route was administered. The same vehicle was used for the suspension of the tested compounds at the doses of 100 and 300 mg/kg/day by oral route.

The test system of series [2] is hyperlipaemic SD male rats. Put plainly: Hypolipemizing activity, 15 days experimental model, modified diet. As to conditions: rat, oral; for Cholesterol VLDL + LDL (percent variation vs hyperlipaemic controls): by difference between total and HDL; for Hepatic index (percent variation vs hyperlipaemic controls): index = (Liver weight/body weight) × 100. As to the method:
as §1
Experimental models have been used in which the animals are rendered hiperlipaemic by "ad libitum" food administration with a modified Nath diet (Atherosclerosis 30, 1978, pag. 45-46) having the following composition:
In the second model a diet was used which was modified with respect to the former one by the following parameters: […]
The animals were fasted with this diet for 15 days consecutively, during which they received the pharmacological treatment once a day by oral route and were sacrificed 24 hours after the last administration. At the sacrifice time the blood was removed for the lipid determination and the liver was removed as well to be weighed and used for the evaluation of the catalase enzyme as the index of the peroxysomes proliferation and thus of hepatotoxicity.
This experimental model has been used only for the molecules which in the first model were found more promising, and has permitted to get values of the serum lipids from 2 to 3 times higher than the normal values both for the total cholesterol and for the triglycerides.
This experimental model was used to:
a) evaluate the effectiveness on a less marked hyperlipoproteinaemy, and
b) assess mainly at the hepatic level the tolerability of the compounds during a more extended treatment.
as §2
On the basis of the indications provided by this screening the most interesting compounds have been evaluated by the 15 days experimental model which permits both the evaluation of the effectiveness in the case of a hyperlipaemia less marked and more constant, and the tolerability control of the compounds during a longer term treatment.
In this case too the results (reported in the following table 2) are expressed as the percent variation with respect to the hyperlipaemic controls to which carboxymethylcellulose as 0.5% in water was administered by oral route at the dose of 10 ml/kg/day. The same vehicle was used for the suspension of the compounds being tested, administered at the doses; of 50 and 100 mg/kg/day by oral route.

Another series has as its system liver. Put plainly: Hepatic tolerability, 15 days at high dose: hepatic index. As to conditions: rat, oral, 15 days, 300 mg/kg/day; absolute values; solvent 5,4. As to the method: (§3) The hypolipemizing activity of the compounds of the present invention has been evaluated in the rat using SD male animals (Charles River) of an initial weight of 150 g, housed in controlled environment at a temperature of 21°±1° C., relative humidity 60% and a 12 hours light/dark cycle. The animals were fasted with this diet for 15 days consecutively, during which they received the pharmacological treatment once a day by oral route and were sacrificed 24 hours after the last administration. At the sacrifice time the blood was removed for the lipid determination and the liver was removed as well to be weighed and used for the evaluation of the catalase enzyme as the index of the peroxysomes proliferation and thus of hepatotoxicity. In order to evaluate the hepatic tolerability of the compounds of interest they have been administered for 15 days at a high dose (300 mg/kg/day) according to the same conditions of the previous experiment.24 hours after the last treatment the animals have been sacrificed, and the liver has been removed and stored at -20° C. up to the time of dosing the activity of the catalase enzyme (Methods of enzymatic analysis, vol.2, pag. 673, 1974 edit. H. U. Bergmeyer, Verlag Chemie International).

For the next series, the system named is catalase enzyme. The series is described as follows: Hepatic tolerability, 15 days at high dose: catalase enzyme activity in liver (index of peroxysomes proliferation). As to conditions: rat liver, oral, 15 days, 300 mg/kg/day; absolute values; solvent 539,8. The procedure: as §3

Regarding `CC(C)COC(=O)c1ccc(OCC(CSc2nc3c(N)ncnc3n2[C@@H]2O[C@H](CO)[C@@H](O)[C@H]2O)=NNC(N)=O)cc1` [Example 33], the change in vivo at 100 mg/kg/day is -37.4% in series [1] (100 mg/kg/day, by difference between total and HDL, read-out: Cholesterol VLDL + LDL (percent variation vs hyperlipaemic controls)); 22.2% in series [1] (100 mg/kg/day, read-out: Cholesterol HDL (percent variation vs hyperlipaemic controls)); -34.8% in series [1] (100 mg/kg/day, read-out: Total Cholesterol (percent variation vs hyperlipaemic controls)); -27.8% in series [1] (100 mg/kg/day, read-out: Triglycerides (percent variation vs hyperlipaemic controls)). Further, the change in vivo at 300 mg/kg/day in series [1] (300 mg/kg/day, by difference between total and HDL, read-out: Cholesterol VLDL + LDL (percent variation vs hyperlipaemic controls)) was -46.9%; in series [1] (300 mg/kg/day, read-out: Cholesterol HDL (percent variation vs hyperlipaemic controls)), 16.6%; in series [1] (300 mg/kg/day, read-out: Total Cholesterol (percent variation vs hyperlipaemic controls)), -44.1%; in series [1] (300 mg/kg/day, read-out: Triglycerides (percent variation vs hyperlipaemic controls)), -43%. The “Hepatic index (percent variation vs hyperlipaemic controls)” value in series [1] (100 mg/kg/day) is -1,6%; in series [1] (300 mg/kg/day) it was -2,5%; in series [2] (50 mg/kg/day), “+2,2%”; in series [2] (100 mg/kg/day), “+3,9%”. For the same compound, the “Cholesterol HDL (percent variation vs hyperlipaemic controls)” value in series [2] (50 mg/kg/day) is “+15,6%”; in series [2] (100 mg/kg/day), “+19,4%”. Also, the “Total Cholesterol (percent variation vs hyperlipaemic controls)” value in series [2] (50 mg/kg/day) is on record as -29,7%; in series [2] (100 mg/kg/day), -33,8%. The results for the “Triglycerides (percent variation vs hyperlipaemic controls)” value in series [2] (50 mg/kg/day) and in series [2] (100 mg/kg/day) were -20,5% and -30,6%, respectively. For the same compound, the “Cholesterol VLDL + LDL (percent variation vs hyperlipaemic controls)” value in series [2] (50 mg/kg/day) was -34,7%; in series [2] (100 mg/kg/day), -39,7%. Also, the “Hepatic index (Liver weight/body weight) × 100” value in the series with liver was 5,3. Besides, the Catalase enzyme activity with catalase enzyme was 378,5 umoli/min/mg proteins.
